The source of these data is PubChem BioAssay AID651880 (NMMLSC, 2012).

Structures are written as SMILES. pEC50: −log10 of the molar value. Activity calls are given as the source filed them. No rule for the calls is given here.

The test deals with Botulinum neurotoxin type F light chain protease (Clostridium botulinum). The test can be described thus: Botulinum neurotoxin type F light chain protease inhibitors, multiplex microsphere cleavage, dose response (AID 651880). To be noted: multiplex microsphere flow cytometry protease cleavage assay. For orientation: In flow cytometry, cells or beads pass a laser one at a time.

The term EC50 denotes the concentration at which the effect is half-maximal. Turning to `COc1ccc(N2N=C(c3ccccn3)CC2c2ccccc2)cc1` (centres undefined), the EC50 was > 20 µM (inactive).
For `COc1ccc(N2N=C(c3ccc(SC)cc3)CC2c2ccccc2)cc1` (centres undefined), the EC50 is > 20 µM (inactive).
For `c1ccc(C2CC(c3ccncc3)=NN2c2ccccc2)cc1` (centres undefined), the EC50 was > 20 µM (inactive).
With `CNC(=O)c1ccc(N2N=C(c3ccccc3)CC2c2ccccc2)cc1` (centres undefined), the EC50 was > 20 µM (inactive).
As to `CS(=O)(=O)c1ccc(N2N=C(c3ccccc3)CC2c2ccccc2)cc1` (centres undefined), the EC50 is > 20 µM (inactive).
Take `NS(=O)(=O)c1ccc(N2N=C(c3ccccc3)CC2c2ccccc2)cc1` (centres undefined): the EC50 was > 20 µM (inactive).
As usually defined, the pEC50 is the EC50 on a negative log10 scale, so that one unit is a factor of ten. Take `O=[N+]([O-])c1ccc(N2N=C(c3ccccc3)CC2c2ccccc2)cc1` (centres undefined): the pEC50 was 6.70.
On to `O=C(c1ccc(N2N=C(c3ccccc3)CC2c2ccccc2)cc1)N1CCCCC1` (centres undefined), for which the EC50 is > 20 µM (inactive).
Turning to `COc1ccc(N2N=C(c3ccncc3)CC2c2ccccc2)cc1` (centres undefined), the EC50 was > 20 µM (inactive).
For the molecule `c1ccc(C2=NN(c3ccccc3)C(c3ccccc3)C2)cc1` (centres undefined), the EC50 was > 20 µM (inactive).
Take `c1ccc(C2CC(c3ccccn3)=NN2c2ccccc2)cc1` (centres undefined): the EC50 was > 20 µM (inactive).
On the same count and under the same terms, in the case of `CSc1ccc(C2=NN(c3ccccc3)C(c3ccccc3)C2)cc1` (centres undefined) it was > 20 µM (inactive).
Regarding `CSc1ccc(C2=NN(c3ccc([N+](=O)[O-])cc3)C(c3ccccc3)C2)cc1` (centres undefined), the pEC50 is 7.30.
As to `COc1ccc(N2N=C(c3ccccc3)CC2c2ccccc2)cc1` (centres undefined), the EC50 is > 20 µM (inactive).
The same measure, in the same setting: the value for `c1ccc(C2CC(c3cccnc3)=NN2c2ccccc2)cc1` (centres undefined) was > 20 µM (inactive); that for `CSc1ccc(C2=NN(c3ccc(S(C)(=O)=O)cc3)C(c3ccccc3)C2)cc1` (centres undefined) was > 20 µM (inactive).
Regarding `NS(=O)(=O)c1ccc(N2N=C(c3ccncc3)CC2c2ccccc2)cc1` (centres undefined), the EC50 was > 20 µM (inactive).
On the same count and under the same terms, in the case of `O=C(c1ccc(N2N=C(c3ccccc3)CC2c2ccccc2)cc1)N1CCOCC1` (centres undefined) it was > 20 µM (inactive); in that of `CSc1ccc(C2=NN(c3ccc(C(=O)N4CCOCC4)cc3)C(c3ccccc3)C2)cc1` (centres undefined), > 20 µM (inactive).
Still for that read-out and setting: in the case of `CS(=O)(=O)c1ccc(N2N=C(c3cccnc3)CC2c2ccccc2)cc1` (centres undefined) it was > 20 µM (inactive).
`CC(C)NC(=O)c1ccc(N2N=C(c3ccccc3)CC2c2ccccc2)cc1` (centres undefined): the EC50 is > 20 µM (inactive).
For the molecule `CSc1ccc(C2=NN(c3ccc(C(=O)N4CCCCC4)cc3)C(c3ccccc3)C2)cc1` (centres undefined), the EC50 was > 20 µM (inactive).
Consider `c1ccc(-c2cc(-c3ccccc3)n(-c3ccccc3)n2)cc1`, for which the EC50 was > 20 µM (inactive).
Regarding `CNC(=O)c1ccc(N2N=C(c3ccc(SC)cc3)CC2c2ccccc2)cc1` (centres undefined), the EC50 is > 20 µM (inactive).
As for `COc1ccc(N2N=C(c3cccnc3)CC2c2ccccc2)cc1` (centres undefined), the EC50 is > 20 µM (inactive).
Take `NS(=O)(=O)c1ccc(N2N=C(c3cccnc3)CC2c2ccccc2)cc1` (centres undefined): the EC50 was > 20 µM (inactive).
For the molecule `CC(C)CNC(=O)c1ccc(N2N=C(c3ccccc3)CC2c2ccccc2)cc1` (centres undefined), the EC50 is > 20 µM (inactive).
Regarding `CSc1ccc(C2=NN(c3ccc(S(N)(=O)=O)cc3)C(c3ccccc3)C2)cc1` (centres undefined), the EC50 was > 20 µM (inactive).
Take `CS(=O)(=O)c1ccc(N2N=C(c3ccncc3)CC2c2ccccc2)cc1` (centres undefined): the EC50 is > 20 µM (inactive).
